≈ marks a conversion by molar mass, not a printed value. Like-named read-outs stand apart in the source and are kept apart here.
Assays:
[1] = test system: Cryptococcus neoformans CCUG 23451; assay: Robotic MIC assay, Cryptococcus neoformans (Example 6); type: cell-based; details: for MIC: Cryptococcus neoformans, read-out: Minimum Inhibitory Concentration (MIC)
Procedure: Cryptococcus sp. was grown at 30° C. for 96 h on YM-agar. Spores and aerial mycelium was cut out from the agar, suspended in 1 ml YM-broth and dispersed with glass beads (1 mm) in a mini bead beater for 2 min. The suspension was added glycerol to 10% and frozen at −80° C. Each batch of frozen stock culture was then characterized in separate growth experiments using Mueller-Hinton and RPMI to determine the minimum amount of inoculum giving satisfactory growth after 48 h under the conditions relevant for the MIC assay. This inoculum procedure is used in order to reduce day to day variation in bioassays.
Robotic minimum inhibitory concentration (MIC) assay was performed as follows. OligoG CF-5/20 was dissolved in medium (Mueller-Hinton, RPMI with 2% glucose, Sabouraud or YM) to 1.25 times of the desired assay concentrations (2, 6 and 10%). […].
Two-fold serial dilutions of antifungal agents were made in medium with different concentrations of OligoG CF-5/20, and the solutions were placed in four parallel wells in Nunc 384-well micro plates (30 μl per well in Nunc 242757 microplates). A group of 8 wells with no addition of antifungal agents for each OligoG CF-5/20 concentration was included on each micro plate as growth reference. Each well in the 384-well assay plates was added 7.5 μl of the medium innoculated with frozen stock culture of the relevant strains.
The microplates were placed in plastic bags and incubated without shaking at 34° C. The optical density at 600 nm in the microwells was measured after certain time points from 24 h to 96 h of incubation. […]

[2] = test system: Aspergillus flavus CCUG 28296; assay: Robotic MIC assay, Aspergillus (Example 4); type: cell-based; details: Aspergillus flavus, CCUG23451 / CCUG28296, 48 h, Mueller-Hinton broth, read-out: Minimum Inhibitory Concentration (MIC)
How it was run: (§1)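 Frozen spore/mycelium stocks were used as inoculum, sized for adequate 48 h growth. Two-fold antifungal dilutions were prepared in Mueller-Hinton broth with OligoG CF-5/20 (2, 6 or 10% assay concentrations; quadruplicate wells). Plates were incubated static at 34 °C, with OD600 read at about 24 and 48 h.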

[3] = test system: Aspergillus fumigatus CCUG 17460; assay: Robotic MIC assay, Aspergillus (Example 4); type: cell-based; details: Aspergillus fumigatus, CCUG17460, 48 h, Mueller-Hinton broth, read-out: Minimum Inhibitory Concentration (MIC)
How it was run: as §1

[4] = test system: C. parapsillosis ATCC 22019T; assay: Robotic MIC assay, Candida strains (Example 2); type: cell-based, Candida parapsilosis; details: Lodderomyces parapsilosis, ATCC22019, 48 h, Mueller-Hinton broth, read-out: Minimum Inhibitory Concentration (MIC)
Procedure: A robotic MIC Assay was performed as follows. OligoG CF-5/20 were dissolved in medium (Mueller-Hinton broth or M19 broth depending on experiment) to 1.25 times of the desired assay concentrations (2, 6 and 10%). The antifungal agents under test were dissolved in medium without OligoG CF-5/20 and in medium with OligoG CF-5/20 at a concentration of 1.25 times the highest desired assay concentrations. For experiments where the effect of adding different concentrations of Na^+ was investigated, NaCl was dissolved in medium to the desired concentrations (10, 30 and 50 mM).
Two-fold serial dilutions of antifungal agents were made in medium with different concentrations of OligoG CF-5/20, and the solutions were placed in four parallel wells in Nunc 384-well micro plates (30 μl per well in Nunc 242757 microplates). A group of 8 wells with no addition of antifungal agents for each OligoG CF-5/20 concentration was included on each microplate as growth reference. To each well in the 384-well assay plates was added 7.5 μl of medium inoculated with a frozen stock culture of Candida albicans (strain CCUG 39343).
The micro plates were placed in plastic bags and incubated without shaking at 34° C. The optical density at 600 nm in the microwells was measured after approximately 13, 18, 24 and 34 hours of incubation, and the relative growth yield in each well was calculated based on the growth in the reference groups.
The robotic assay described in Example 1 was employed in this Example. Strains were grown in Mueller-Hinton broth (LAB114 from Lab M Limited) and MIC values (μg ml-1) were determined for each antifungal after incubation for 48 h in the presence of 0, 2, 6 and 10% OligoG CF-5/20 G-fragments. […] OligoG CF-5/20 G-fragments were provided by AlgiPharma AS, Norway.
Candida strains used were as follows: • C. albicans CCUG 39343 (strain from culture collection) • C. parapsillosis ATCC 22019T (strain from culture collection) • C. krusei 141/03 (candidosis) • C. krusei 249/03(2) (ulceration) • C. lusitaniae 994/01(2) (candidosis) • C. tropicalis 12 (vaginal) • C. tropicalis 75 (vaginal) • C. tropicalis 519468 (urinary) • C. tropicalis 544123 (urinary) • C. tropicalis 250/03 (candidosis) • C. tropicalis AG1 (oral) • C. tropicalis T2.2 (oral)

MIC ([1]; CCUG23451, 72 h, RPMI 2% GLU, 0% OligoG, 72 hours): 2 µg/mL (≈ 6.53 µM) | MIC ([1]; CCUG23451, 72 h, RPMI 2% GLU, 2% OligoG, 72 hours): 1 µg/mL (≈ 3.27 µM) | MIC ([1]; CCUG23451, 72 h, RPMI 2% GLU, 6% OligoG, 72 hours): 0.5 µg/mL (≈ 1.63 µM) | MIC ([1]; CCUG23451, 72 h, Sabouraud, 0% OligoG, 72 hours): 1 µg/mL (≈ 3.27 µM) | MIC ([1]; CCUG23451, 72 h, Sabouraud, 2% OligoG, 72 hours): 0.5 µg/mL (≈ 1.63 µM) | MIC ([1]; CCUG23451, 72 h, Sabouraud, 6% OligoG, 72 hours): 0.5 µg/mL (≈ 1.63 µM) | MIC ([1]; CCUG23451, 72 h, YM, 0% OligoG, 72 hours): 1 µg/mL (≈ 3.27 µM) | MIC ([1]; CCUG23451, 72 h, YM, 2% OligoG, 72 hours): 0.5 µg/mL (≈ 1.63 µM) | MIC ([1]; CCUG23451, 96 h, MH, 0% OligoG, 96 hours): 2 µg/mL (≈ 6.53 µM) | MIC ([1]; CCUG23451, 96 h, MH, 2% OligoG, 96 hours): 0.5 µg/mL (≈ 1.63 µM) | MIC ([1]; CCUG23451, 96 h, RPMI 2% GLU, 0% OligoG, 96 hours): 2 µg/mL (≈ 6.53 µM) | MIC ([1]; CCUG23451, 96 h, RPMI 2% GLU, 2% OligoG, 96 hours): 1 µg/mL (≈ 3.27 µM) | MIC ([1]; CCUG23451, 96 h, RPMI 2% GLU, 6% OligoG, 96 hours): 1 µg/mL (≈ 3.27 µM) | MIC ([1]; CCUG23451, 96 h, RPMI 2% GLU, 10% OligoG, 96 hours): 1 µg/mL (≈ 3.27 µM) | MIC ([1]; CCUG23451, 96 h, Sabouraud, 0% OligoG, 96 hours): 1 µg/mL (≈ 3.27 µM) | MIC ([1]; CCUG23451, 96 h, Sabouraud, 2% OligoG, 96 hours): 0.5 µg/mL (≈ 1.63 µM) | MIC ([1]; CCUG23451, 96 h, Sabouraud, 6% OligoG, 96 hours): 0.5 µg/mL (≈ 1.63 µM) | MIC ([1]; CCUG23451, 96 h, YM, 0% OligoG, 96 hours): 1 µg/mL (≈ 3.27 µM) | MIC ([1]; CCUG23451, 96 h, YM, 2% OligoG, 96 hours): 1 µg/mL (≈ 3.27 µM) | effect on MIC when OligoG is added to the medium ([1]; media: RPMI with 2% glucose, MH, Sabouraud, YM): reduction in MIC in all media tested | MIC ([2]; A. flavus CCUG 23451, 0% OligoG): 64 µg/mL (≈ 209 µM) | MIC ([2]; A. flavus CCUG 23451, 2% OligoG): 64 µg/mL (≈ 209 µM) | MIC ([2]; A. flavus CCUG 23451, 6% OligoG): 32 µg/mL (≈ 104 µM) | MIC ([2]; A. flavus CCUG 23451, 10% OligoG): 32 µg/mL (≈ 104 µM) | MIC ([3]; A. fumigatus CCUG 17460, 0% OligoG): > 128 µg/mL | MIC ([3]; A. fumigatus CCUG 17460, 2% OligoG): > 128 µg/mL | MIC ([3]; A. fumigatus CCUG 17460, 6% OligoG): 128 µg/mL (≈ 418 µM) | MIC ([3]; A. fumigatus CCUG 17460, 10% OligoG): 128 µg/mL (≈ 418 µM) | MIC ([4]; 0% OligoG): 2 µg/mL (≈ 6.53 µM) | MIC ([4]; 2% OligoG): 2 µg/mL (≈ 6.53 µM) | MIC ([4]; 6% OligoG): 0.5 µg/mL (≈ 1.63 µM) | MIC ([4]; 10% OligoG): 0.25 µg/mL (≈ 0.816 µM)
Structure (SMILES): OC(Cn1cncn1)(Cn1cncn1)c1ccc(F)cc1F [Fluconazole, fluconazole]
